Assays:
NCI-N87 tumors = conditions: paclitaxel 20 mpk q7d, trastuzumab 3.5 mpk q3d, MM-111 48 mpk q3d
Procedure: 7.5×10^6 NCI-N87 cells were implanted subcutaneously in the flanks of female Nu/Nu mice. When tumor volumes reached on average 341 mm^3 (on day 24 after tumor implantation) mice were segregated into 4 groups of 10 mice. […] Tumors were measured twice a week with a digital caliper.

[1] = tested on: ErbB3, Akt and ERK1/2 signaling in BT474-M3-GFP-HRG tumors; assay: Target and downstream signaling in BT474-M3-GFP-HRG tumor lysates (Luminex, western blot); assay type: in vivo, mice; conditions: for activity in reducing pErbB3 levels with tumoral HRG expression: versus BT474-M3-GFP; for ratio of pERK and totERK levels / ratio of pErbB3 to total ErbB3 / ratio of phospho-Akt to total Akt: in the presence of HRG
Procedure: (§1) At the end of study (21 or 25 days after initiation of treatment for BT474-M3-GFP-HRG and BT474-M3-GFP, respectively) tumor samples were collected (24 h after the last MM-111 and 6 h after the last lapatinib dose) and analyzed for target and downstream signaling inhibition. Total and phosphorylated ErbB3 and Akt protein levels were analyzed from tumor lysates by suspension array technology (Luminex) and total and phosphorylated Erk1/2 levels by western blot using PCNA to normalize the results.

[2] = tested on: pAKT in heregulin-stimulated BT474-M3 cells; assay: Inhibition of AKT phosphorylation in heregulin-stimulated cells; assay type: cell-based; conditions: dose range
BT474-M3 cells = assay: In vitro breast cancer model, viable cell count after 6 days; assay type: cell-based
pAKT in A2780 cells = assay: pAKT (ser473) western blot in cisplatin-sensitive cells; assay type: cell-based, human; conditions: cisplatin 0.1 to 10 μM, especially after 24 hours and/or 10 μM
Procedure: (§2) After incubation cell lysates are prepared and analyzed for pAKT (ser473) (Cat #9271 Cell Signaling Technologies) by western blot.
(§3) The effect of MM-121 on the AKT pathway is determined by treating sensitive (A2780) and resistant (A2780cis) cells with a dose range of MM-121 ((0.01 to 1 μM) in vitro for 1, 4, 24 or 72 hours. After incubation cell lysates are prepared and analyzed for pAKT (ser473) (Cat. #9271 Cell Signaling Technologies) by western blot.
(§4) Cell lysates are analyzed by western blot for pAKT.

pAKT in A2780cis cells = assay: pAKT (ser473) western blot in cisplatin-resistant cells; assay type: cell-based, human; conditions: cisplatin 0.1 to 10 μM or MM-121 0.01 to 1 μM, 1, 4, 24 or 72 hours
Procedure: as §2, §3, §4

A2780cis cells = assay: Cell Titer Glo cell viability after cisplatin, resistant versus sensitive line; assay type: cell-based, human; conditions: cisplatin 0.01 to 10 μM, 72 hours
Procedure: The A2780 human ovarian cancer cell line was originally established from tumor tissue from an untreated patient. The A2780cis cell line is cisplatin-resistant (Cat. #93112517, Sigma). […] A2780cis is cross-resistant to melphalan, adriamycin and irradiation.
Cell viability is measured using the Cell Titer Glo assay (Cat. # G7570, Promega) according to the manufacturer's instructions.
Cell viability was measured by the Cell Titer Glo assay which measures metabolically active cells by quantitating ATP.

[3] = tested on: BT474-M3 wild type cell spheroids; assay: Spheroid assay, parental cells; assay type: cell-based; conditions: series dilution, six days
Procedure: (§5) Cells are cultured for six days. Spheroids are then examined by Nikon microscope and analyzed by MetaMorph® Image Analysis Software (Molecular Devices). The spheroid size from cells cultured in medium containing 10% FBS is set as a control.

[4] = tested on: ErbB3, Akt and ERK1/2 signaling in BT474-M3-GFP tumors; assay: Target and downstream signaling in BT474-M3-GFP tumor lysates (Luminex, western blot); assay type: in vivo, mice; conditions: end of study tumor lysates
Procedure: as §1

BT474-M3-GFP-HRG tumors = assay: BT474-M3-GFP-HRG tumor xenograft growth; assay type: in vivo, mice; conditions: Example 10; MM-111 48 mpk q3d i.p., tamoxifen 5 mg; versus BT474-M3-GFP
Procedure: 15×10^6 BT474-M3 cells engineered to express GFP (BT474-M3-GFP) or BT474-M3 cells engineered to express GFP and heregulin 1 (BT474-M3-GFP-HRG) were implanted in to the mammary fat pads of estrogen supplemented (0.72 mg 17β-estradiol in a 60-day slow release biodegradable carrier) female NCr/NU-mice (Taconic Farms, Inc). When tumor volumes reached on average 516 mm^3 (BT474-M3-GFP-HRG on day 17 after tumor implantation) or 422 mm^3 (BT474-M3-GFP on day 20 after tumor implantation), mice were segregated into 8 groups of 10-15 mice. Groups received either no treatment (Control), MM-111 (48 mpk q3d i.p. (dose every three days, intraperitoneally)), lapatinib (150 mpk qd p.o. (oral dose daily)), tamoxifen (5 mg free base tamoxifen in a 60-day slow release biodegradable carrier), MM-111 and lapatinib, MM-111 and tamoxifen, lapatinib and tamoxifen or MM-111, lapatinib and tamoxifen. Tumors were measured twice a week with a digital caliber.

[5] = tested on: BT474-M3 parental (wild-type) cells; assay: Cell proliferation assay (WST-1), parental cells; assay type: cell-based; conditions: series dilution, five days
Procedure: (§6) After five days of treatment, cell viability is measured by WST-1 (Roche, Cat. #5015944001) according to manufacturer's instructions. Cells treated with control (RPMI1640 with 10% FBS) are set as 100%, other treatments are expressed as percentage of the control.

[6] = tested on: BT474-M3 breast cancer xenograft; assay: BT474-M3 breast cancer xenograft model; assay type: in vivo, mice; conditions: MM-111 3 mg/kg every 3 days, trastuzumab 1 mg/kg weekly
Procedure: BT474-M3 cells (2×10^7 cells per mice) are inoculated subcutaneously into Nu/Nu immunodeficient mice, which are implanted with an estrogen pellet (0.72 mg; 60-day release) one day before the experiment. […] Tumors are measured twice a week and the experiment is ended at day 40.

[7] = tested on: trastuzumab-resistant BT474-M3 cells; assay: Cell proliferation assay (WST-1), trastuzumab-resistant cells; assay type: cell-based; conditions: series dilution, five days
Procedure: as §6

[8] = tested on: trastuzumab-resistant BT474-M3 cell spheroids; assay: Spheroid assay, trastuzumab-resistant cells; assay type: cell-based
Procedure: as §5

[9] = tested on: heregulin-induced phosphorylation of ErbB3, AKT and ERK in ACHN, Du145 and OvCAR8 cells; assay: ELISA of heregulin-induced pErbB3, pAKT and pERK in cell lysates; assay type: cell-based
Procedure: In the first set of experiments, three cancer cell lines (ACHN (renal cell adenocarcinoma, ATCC® #CRL-1611™), Du145 (prostate carcinoma, ATCC® #HTB-81™) and OvCAR 8 (ovarian adenocarcinoma, ATCC® #HTB-161™) cell lines; obtained from the National Cancer Institute's Developmental Therapeutics Program) were seeded at 35,000 cells per well in 96-well plates and grown overnight (maintenance culture medium was RPMI-1640 media supplemented with 10% fetal calf serum, 2 mM L-glutamine, and Pen-Strep; cells were grown in a humidified atmosphere at 5% CO2, 95% air at 37° C.). Cells were synchronized by 20-24 hour serum starvation. The cells were then pre-incubated with 4-fold serial dilutions, ranging from […] to 7.6 pM, of MM-121 for 30 minutes. […]
For ELISA analysis of cell lysates, capture antibodies against ErbB1 (R&D Systems AF231), ErbB2 (R&D Systems, MAB1129), ErbB3 (R&D Systems, MAB 3481) and AKT (Upstate, 05-591 MG) were incubated in 384 well black flat-bottom polystyrene high-binding plates (Corning, 3708) overnight at room temperature. […] All ELISAs were visualized with SuperSignal® ELISA Pico Chemiluminescent Substrate (Pierce, Cat. #37069) and luminescent signal was measured using a luminometer.
Inhibitor IC50 values were calculated by least-squares fitting the dose response data with a sigmoidal curve (GraphPad Prism®, GraphPad Software, Inc., La Jolla, Calif.).

[10] = tested on: EGFR wild-type NSCLC cell lines; assay: Spheroid assay (CellTiter Glo live cell density) in EGFR wild-type NSCLC cell lines; assay type: cell-based
Procedure: The cell lines bear no mutations within their EGFR genes and represent three distinct histological subtypes (see Table X below). Cells harboring Ras mutations are indicated.
Relative live cell densities were then determined using the CellTiter Glo® reagent (Promega).

[11] = in the presence of 5 nM heregulin

## CC(=O)O[C@H]1C(=O)[C@@]2(C)[C@H]([C@H](OC(=O)c3ccccc3)[C@]3(O)C[C@H](OC(=O)[C@H](O)[C@@H](NC(=O)c4ccccc4)c4ccccc4)C(C)=C1C3(C)C)[C@]1(OC(C)=O)CO[C@@H]1C[C@@H]2O [paclitaxel]
NCI-N87 tumors
  tumor growth: only tumor stasis at best

## CS(=O)(=O)CCNCc1ccc(-c2ccc3ncnc(Nc4ccc(OCc5cccc(F)c5)c(Cl)c4)c3c2)o1 [lapatinib, reference compound]
[1]; end of study tumor lysates
  activity in reducing pErbB3 levels with tumoral HRG expression: decreased
[1]
  ratio of pERK and totERK levels: decreased effectiveness
  ratio of pErbB3 to total ErbB3: effectiveness was reduced in the presence of HRG
  ratio of phospho-Akt to total Akt: decreased effectiveness
[2]
  inhibition of AKT phosphorylation: inhibited phosphorylation of AKT
BT474-M3 cells; basal conditions
  inhibition of cell proliferation: 50%
BT474-M3 cells; [11]
  inhibition of cell proliferation: 23%

## N.N.[Cl][Pt][Cl] [cisplatin]
pAKT in A2780 cells
  pAKT production: decrease in pAKT production
pAKT in A2780cis cells
  pAKT production: no effect on pAKT production
A2780cis cells
  cell viability (percentage of media control), A2780cis versus A2780: much greater viability

## MM-111: bispecific anti-ErbB3, anti-ErbB2 antibody, two scFvs in a Human Serum Albumin conjugate, SEQ ID NO:44
[3]
  inhibition of spheroid growth: significantly reduced spheroid growth
[4]
  total ErbB3 expression: increased total ErbB3 expression
BT474-M3-GFP-HRG tumors
  effect of tumoral HRG overexpression on efficacy (tumor volume): modestly improved
[5]
  inhibition of cell proliferation: maintained similar inhibitory activity
[1]; end of study tumor lysates
  total ErbB3 expression: increased total ErbB3 expression
  activity in reducing pErbB3 levels with tumoral HRG expression: increased effectiveness
[1]
  ratio of pERK and totERK levels: effective at reducing pERK production in the presence of HRG
  ratio of pErbB3 to total ErbB3: decreased ErbB3 activity even in the presence of HRG
  ratio of phospho-Akt to total Akt: effective at reducing pAkt production in the presence of HRG
[6]
  completely regressed tumors: no complete regressions were observed
[7]
  inhibition of cell proliferation: maintained similar inhibitory activity
[8]; in the presence of 100 nM gefitinib
  inhibition of spheroid growth in combination with gefitinib: effective at inhibiting cell growth
[8]; in the presence of 300 nM erlotinib
  inhibition of spheroid growth in combination with erlotinib: effective at inhibiting cell growth
[8]; spheroids
  inhibitory activity in trastuzumab-resistant cells compared with wild-type cells: slightly improved
[8]; trastuzumab-resistant cells, series dilution, six days
  inhibition of spheroid growth: significantly reduced spheroid growth
BT474-M3 cells; basal conditions
  inhibition of cell proliferation: 24%
BT474-M3 cells; [11]
  inhibition of cell proliferation: 33%

## CC/C(=C(\c1ccccc1)c1ccc(OCCN(C)C)cc1)c1ccccc1 [tamoxifen, reference compound]
BT474-M3-GFP-HRG tumors
  effect of tumoral HRG overexpression on efficacy (tumor volume): improved

B1: MM-121: fully human anti-ErbB3 antibody, VH and VL sequences SEQ ID NOs: 1 and 2 (antibody, V domains shown)
VH: EVQLLESGGGLVQPGGSLRLSCAASGFTFSHYVMAWVRQAPGKGLEWVSSISSSGGWTLYADSVKGRFTISRDNSKNTLYLQMNSLRAEDTAVYYCTRGLKMATIFDYWGQGTLVTVSS
VL: QSALTQPASVSGSPGQSITISCTGTSSDVGSYNVVSWYQQHPGKAPKLIIYEVSQRPSGVSNRFSGSKSGNTASLTISGLQTEDEADYYCCSYAGSSIFVIFGGGTKVTVL
[9]; MM-121 2 mM to 7.6 pM pre-incubated 30 minutes, 25 nM heregulin 10 minutes, versus HRG control
  inhibition of HRG-induced ErbB3, AKT and ERK phosphorylation: inhibits HRG-induced ErbB3, AKT and ERK phosphorylation
[9]; in most cases
  maximal inhibition of pErbB3, pAKT and pERK relative to unstimulated control: near or below basal signaling levels
pAKT in A2780cis cells
  pAKT production: gradual decrease in pAKT production at all dose levels
[10]; 1 μM MM-121 added to erlotinib 0 to 10 μM, 10 nM HRG, all eight cell lines
  effect on sensitivity of spheroids to erlotinib, dose range: restore sensitivity of the spheroids to erlotinib
[10]; MM-121 1 μM with erlotinib 1 μM, HRG-stimulated cells, all five cell lines
  effect on sensitivity of the cells to erlotinib: greatly improve sensitivity of the cells to erlotinib
